Common to all, as to experiment: DTP human tumour cell line panel, 48 h
In experiment [1] the test system is LXFL 529 NSCLC.
For experiment [2], the system named is 786-0 renal.
Experiment [3] has as its system HOP-18 NSCLC.
The test system of experiment [4] is DMS 273 small cell lung.
The subject of experiment [5] is XF 498 CNS.
For experiment [6], the system named is DMS 114 small cell lung.
Experiment [7] deals with M19-MEL melanoma.
Experiment [8] deals with DLD-1 colon.
For experiment [9], the system named is SNB-78 CNS.
In experiment [10] the test system is KM20L2 colon.
Experiment [11] deals with PC-3 prostate.
Experiment [12] concerns MDA-MB-231 breast.
Experiment [13] has as its system NCI/ADR-RES ovarian.
Experiment [14] has as its system HS 578T breast.
Experiment [15] concerns MCF7 breast.

As usually defined, the TGI is the concentration at which net growth stops. As usually defined, the GI50 is the concentration at which growth is held to half of that of the control.

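All cell lines were grown in 96-well plates and treated with compound for 48 hours. GI50: concentration for 50% inhibition of growth. TGI: total growth inhibition.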 A value given as a limit tells only on which side of the number the result lay.

On to `Cc1cc2c(C(C)C)c(O)c(O)c(C=NCCO)c2c(O)c1-c1c(C)cc2c(C(C)C)c(O)c(O)c(C=NCCO)c2c1O`, for which the TGI was 3.05 µM in experiment [1]; 4.83 µM in [2]; 5.37 µM in experiment [3]; 3.16 µM in experiment [4]; 8.43 µM in experiment [5]; 2.7 µM in experiment [6]. In addition, the TGI worked out at 3.62 µM in [7], 11.7 µM in experiment [8] and 34.1 µM in experiment [9].
`CCOc1ccc(/C(C=O)=C(\Cl)c2ccc(OC)c(OC)c2)cc1`: the total growth inhibition concentration (TGI) in experiment [10] was above 100 µM; in [1], above 100 µM; in experiment [3] it was above 100 µM; in [4], above 100 µM; in experiment [5], 79.2 µM; in experiment [6], above 100 µM. Besides, the TGI in [7], in experiment [8] and in experiment [9] was above 100 µM in each case.
In the case of `CC(=O)O[C@H]1C=CC(=O)C(C)CC1C` (stereo not given in full), the TGI in experiment [10], in experiment [1], in [4], in [5], in [6] and in experiment [7] was above 100 µM each time. Also, the concentration for total growth inhibition (TGI) in experiment [8] and in experiment [9] was above 100 µM in each case.
With `CC(=O)OCC1=C(C(=O)O)C(c2ccc3c(c2)OCO3)c2cc3c(cc2O1)OCO3` (stereo not given), the TGI in experiment [10], in experiment [3], in experiment [4], in experiment [5], in experiment [6] and in experiment [7] was above 100 µM in each case. In addition, the TGI in experiment [8] and in experiment [9] was above 100 µM in each case.
As to `CCCC(N)C(=O)c1ccccc1` (stereo not given), the total growth inhibition concentration (TGI) in experiment [10], in experiment [1], in experiment [2], in [3], in experiment [4] and in [5] was above 100 µM in each case. Also, the concentration for total growth inhibition (TGI) in experiment [6], in experiment [8] and in experiment [9] was above 100 µM each time.
As to `O=C(Nc1ccc(Sc2ccc(N=Nc3c(O)c(S(=O)(=O)O)cc4cc(S(=O)(=O)O)ccc34)cc2)cc1)c1ccc(N=Nc2c(O)ccc3c(S(=O)(=O)O)cc(S(=O)(=O)O)cc23)cc1`, the TGI in [10] is above 100 µM; in [1] it was above 100 µM; in experiment [2], above 100 µM; in experiment [3] it was above 100 µM; in experiment [4], above 100 µM; in experiment [5], 91.7 µM. Moreover, the TGI in [7] was 68.6 µM; in [8], above 100 µM; in experiment [9], above 100 µM.
As for `COc1ccc(-c2nn(-c3cccc(NC(=O)Nc4ccccc4)c3)cc2-c2ccncc2)cc1Cl`, the GI50 in experiment [11] was 1.84 µM; in experiment [12] it was 2.53 µM; in experiment [13] it was 2.81 µM; in experiment [14], 2.46 µM; in [15] it was 2.07 µM. The TGI in experiment [11] is 4.5 µM; in experiment [12] it was 8.01 µM; in experiment [13] it was 8.26 µM; in experiment [14], 7.94 µM; in experiment [15], 4.91 µM.
For `COc1c2c(cc3c1OCO3)C13C=CC(OC)CC1N(CC3)C2` (stereo not given), the TGI in experiment [11], in [12], in experiment [2], in [13], in experiment [14] and in experiment [15] was above 100 µM throughout.
On to `Clc1ccc(CNc2nc(Cl)c3[nH]cnc3n2)cc1Cl`, for which the total growth inhibition concentration (TGI) in [11] was above 100 µM; in experiment [12], above 100 µM; in experiment [2], above 100 µM; in experiment [13] it was 69.6 µM; in experiment [14], 50.8 µM; in experiment [15] it was 84.5 µM.
For the compound `C=C1C(=O)O[C@@H]2[C@H]1CCC(C)=C1C=CC(=O)[C@]12C`, the total growth inhibition concentration (TGI) in experiment [1] was determined as 26.7 µM; in [3], 29.7 µM; in [4], 41.1 µM; in experiment [6] it was 29.8 µM; in experiment [8] it was 32.8 µM; in [9], 18.9 µM.
For the compound `CCC(=O)NC(Nc1cccc(F)c1)(C(F)(F)F)C(F)(F)F`, the total growth inhibition concentration (TGI) in [11], in experiment [12], in experiment [13], in experiment [14] and in [15] was above 100 µM each time.
`CC(=O)C=NCC(=O)O`: the TGI in experiment [11], in experiment [12], in experiment [2], in experiment [13], in [14] and in experiment [15] was above 100 µM each time.
With `NC1(C(=O)O)CCc2ccc(N(CCCl)CCCl)cc2C1` (stereo not given), the TGI in experiment [10], in experiment [3], in experiment [13], in experiment [4], in [5] and in experiment [6] was above 100 µM each time. In addition, the TGI in experiment [7], in experiment [8] and in [15] was above 100 µM in each case.
Take `c1ccc(N=c2nc(N3CCOCC3)ss2)cc1`: the concentration for total growth inhibition (TGI) was 31.4 µM in [10]; 24.6 µM in experiment [1]; 30.1 µM in [2]; above 100 µM in experiment [3]; 31.4 µM in experiment [4]; 32.1 µM in experiment [5]. The total growth inhibition concentration (TGI) in [6] was 30.2 µM; in experiment [7], 32 µM; in experiment [8] it was 28.3 µM; in experiment [9], 51.3 µM.
For `Fc1ccc(-c2nn3c(-c4cc(C(F)(F)F)cc(C(F)(F)F)c4)nnc3s2)cc1`, the GI50 in experiment [11] is above 50 µM; in experiment [12], 1.79 µM; in experiment [13], 2.95 µM; in [14], 1.76 µM; in experiment [15], above 50 µM. Besides, the total growth inhibition concentration (TGI) in experiment [11], in [12], in [13], in [14] and in experiment [15] was above 50 µM each time.
For `N#CC(Nc1cccc(C(F)(F)F)c1)c1ccccc1C(F)(F)F` (stereo not given), the TGI in [10] came to 28.4 µM; in [1], 15.7 µM; in experiment [3], 26.4 µM; in experiment [4], 21.1 µM; in experiment [5], 12.9 µM; in experiment [6], 23.8 µM. The concentration for total growth inhibition (TGI) came to 18 µM in experiment [7], 29.5 µM in [8] and 43 µM in experiment [9].
With `O=C(Nc1c(C(=O)NC2CCCCC2)[nH]c(=O)[nH]c1=O)c1ccc(Cl)cc1`, the concentration for total growth inhibition (TGI) in experiment [1], in [3], in experiment [5], in experiment [6], in [7] and in experiment [8] was above 100 µM in each case.

The values are drawn from PubChem BioAssay (NCI).
